Measured values from patent publication US7939530B2, “Treatment of lymphoma using 10-propargyl-10-deazaaminopterin and gemcitabine” (Sloan-Kettering Institute for Cancer Research, priority 2004, dated 2011).

Assays:
[1] = test system: SKI-DLCL-1 lymphoma cells; experiment: Trypan Blue Exclusion cytotoxicity assay of single agents and combinations; type: cell-based, human; conditions: MTX 10 nM, PDX 1 nM, Ara-C 40 nM, Gem 10 nM, control = 1
Text: As set forth in greater detail in the examples herein, combination therapy using PDX and gemcitabine has been tested in vitro and in in vivo model systems for efficacy against lymphoma. Table 1 sets forth data obtained in a cytotoxicity assay (Example 2) using SKI-DLCL-1 lymphoma cells. SKI-DLCL-1 is a diffuse large b cell lymphoma (DLBCL) cell line that is particularly resistant to PDX.
In Table 1, the additive effect is in each case the % of control for the single agents multiplied together. The expected additive effect for PDX+Gem is better than for MTX and ara-C, because the agents are individually better. What is observed for both MTX/AraC combinations and PDX/Gem combinations is that the actual result is better than the predicted additive result. The extent of this synergism is quantified in Table 1 as (actual-additive)/additive so that the amount of reduction that occurs through the use of the combination is expressed as a percentage of the expected additive benefit.
To evaluate cytotoxicity of combination of PDX and GEM, a Trypan Blue Exclusion Assay was performed by aliquoting 5×10^5 SKI-DLBCL cells into each well of a 24 well plate with a final volume of 1 milliliter. Each drug was added in duplicate to the plate wells as follows: alone (MTX 10 nM, PDX 1 nM, Ara-C 40 nM, or Gem 10 nM), PDX+Gem or MTX+Ara-C for 48 h (hours). For the scheduled administration of drug, PDX or MTX alone were dispensed in additional duplicate wells. After 24 hours Gem and Ara-C were added to these wells, respectively, and incubated for 48 hours. At the end of incubation, 20 l of each cell culture was added to 20 l of trypan blue, after which […] was added to a hemocytometer (Hausser Scientific, Horsham, Pa.), where viable cells were counted based upon the presence (dead cells) or exclusion (live cells) of dye.

SKI-DLCL-1 cells = experiment: Induction of apoptosis (YO-PRO-1/propidium iodide flow cytometry); type: cell-based, human; conditions: all drugs 1 nM, total exposure 72 hours, sequential: first drug 24 hours prior to second
Description: Ara-C, PDX and Gem in combined and scheduled exposures. In each case, the total exposure time was 72 hours. In sequential treatments, the first drug was administered 24 hours prior to the second drug.
To assess apoptosis occurring as a result of combination therapies, apoptosis was assessed using two well standardized techniques. In the first (YO-PRO), cell membrane permeability was determined by measuring fluorescence of treated and control cells. 2×10^7 SKI-DLBCL cells were treated with either MTX, Ara-C, Gem or PDX alone or combinations of drug given together or scheduled. All drugs were assayed at equimolar concentrations (i.e. 1 nM). The incubation conditions were modeled after the in vitro cytotoxicity experiments. Single agent drugs or combinations of all drugs studied without schedule considerations were incubated for 72 hours, while drugs that were studied in some schedule were introduced in a 24+48 incubation scheme (i.e. drug B added 24 hours following drug A, then incubated for an additional 48 hours for a total incubation time of 72 hours). Cells were then collected, washed twice and re-suspended at a concentration of 1×10^6/mL in DPBS. Membrane permeability was detected via the differential cellular permeability of the fluorescent dyes YO-PRO®-1 and propidium iodide by flow cytometry, as per the manufacturer's guidelines (Vybrant apoptosis kit #4, Molecular Probes, Eugene, Oreg.). In addition to monitoring apoptosis, cell cycle kinetic analyses were also performed on all treated cells based the propidium iodide binding. Apoptotic cells were noted to be permeable to the green fluorescent dye YO-PRO®-1 (em 530, FL-1), and impermeable to the red fluorescent dye propidium iodide (em 575, FL-3). Typically, […] cells allow the entrance of both dyes, whereas living cells are impermeable to both dyes.

[2] = test system: caspase 3 in SKI-DLCL-1 cells; experiment: Caspase 3 activation (EnzChek Caspase-3 Assay Kit #2, Z-DEVD-R110 cleavage); type: cell-based, human; conditions: for Fluorescence at 485ex/527em: 1 nM, control 134.3; for Difference from control: fluorescence at 485ex/527em
Description: To further evaluate the activity of PDX and Gem combinations, Caspase activity was tested by EnzChek® Caspase-3 Assay Kit #2 (Molecular Probes) based upon the fluorometric detection of caspase-dependent Z-DEVD-R110 cleavage (rhodamine 110 bis-[N-CBZ-L-aspartyl-L-glutamyl-L-valyl-L-aspartic acid amide], a non-fluorescent bisamide), which, via a two step process, first yields the monoamide product (weakly fluorescent) and then the fluorescent product R110 (rhodamine 110, strongly fluorescent). Detection was performed on a Fluoroskan Ascent FL fluorescent plate reader (Thermo Lab Systems, Helsinki, Finland) according to the manufacturer's guidelines.

[3] = test system: subcutaneous tumors of SKI; experiment: Preliminary combination xenograft experiment; type: in vivo, irradiated NOD-SCID mice; conditions: for tumor growth compared to the control: MTX 40 mg/kg (MTD), Ara-C 300 mg/kg (MTD) or combination at one-half the MTD, all sacrificed by week three
Description: Given the experience that SKI-DLCL-1 is the most PDX resistant line in the panel, it was selected for these in vivo synergy experiments. […] All animals were treated with the maximum tolerated dose (MTD) of each drug, save the combination studies.

[4] = Second combination xenograft experiment (FIG. 5); conditions: SCID beige (CBSCBG-MM double), mouse, in vivo, ip
Description: (§1) The same type of test was repeated to assess the in vivo efficacy of using combination therapies. […] Schedule dependent treatment was also determined by pretreating animals with PDX or MTX followed 24 hours later with Gem or Ara-C, respectively. One cohort of animals was treated with Gem followed by PDX. In all cases, the control animals received intraperitoneal injections of normal saline.
(§2) Tumor bearing mice were assessed for weight loss and tumor volume at least twice weekly for the duration of the experiment. The data are expressed as the average tumor volume (mm3) per group as a function of time. Tumors were assessed by measuring the two largest perpendicular axes (l=length, w=width) with standard calipers. Tumor volume was calculated using the formula 4/3 πr^3 where r=(l+w)/4. Animals were sacrificed when one dimensional tumor diameter exceeded 2.0 cm, or after loss of more than 10% of their body weight in accordance with institutional guidelines. Animals were housed in standard shoe box cages in temperature and humidity constant rooms on a 12 hour light and dark cycle. Food and water were supplied ad libitum. Animals were maintained in core animal facilities under an institute approved animal protocol.

SKI-DLBCL-1 xenograft = experiment: Second combination xenograft experiment (FIG. 5); conditions: SKI-DLBCL; PDX and Gem at one-quarter of the MTD (15 mg/kg); MTX, Ara-C alone at MTD; ip twice weekly, 4 doses
Description: as §1, §2

[5] = test system: human HT (diffuse large B cell) non-Hodgkin's lymphoma xenografts; experiment: Subcutaneous lymphoma xenograft treatment; type: in vivo; conditions: MTX 40 mg/kg; for Avg Tumor Diameter (mm ± SE): at the nadir of tumor regression
Text: (§3) In order to study the effects of PDX on lymphoma growth in vivo, subcutaneous transplantation models in NOD/SCID mice were generated using three established human lymphoma cell line representative of aggressive transformed FL (RL) and de novo extranodal DLBCL (HT; SKI-DLCL-1) histologies. Six to eight week old non-obsese diabetic severe combined immunodeficient (NOD/SCID) mice (Jackson Laboratories, Bar Harbor, Me.) were sub-lethally irradiated with […] from a gamma source and inoculated with 10×10^6 lymphoma cells via a subcutaneous route. When tumor volumes approached 100 mm^3, mice were divided into three groups, averaging 3-8 mice per group. Mice were treated with normal saline or the maximum tolerated dose (MTD) of MTX (40 mg/kg) or PDX (60 mg/kg) via an intraperitoneal route twice weekly for two weeks (four total doses). […] (Sirotnak, et al., Cancer Chemother. Pharmacol. 12: 26-30 (1984); Sirotnak et al., Cancer Chemother. Pharmacol. 42: 313-318 (1998).
(§4) Engraftment rates in this experiment ranged from 80 to 90%. Palpable tumors formed under the skin approximately 7-10 days after inoculation and were readily measurable with calipers. Mice with subcutaneous lymphoma growths survived an average of 40-50 days after inoculation.

[6] = test system: human RL (transformed follicular) non-Hodgkin's lymphoma xenografts; experiment: Subcutaneous lymphoma xenograft treatment; type: in vivo; conditions: MTX 40 mg/kg
Text: as §3, §4

[7] = test system: human SKI-DLCL-1 (de novo diffuse large B cell) non-Hodgkin's lymphoma xenografts; experiment: Subcutaneous lymphoma xenograft treatment; type: in vivo; conditions: MTX 40 mg/kg
Text: as §3, §4

SKI-DLBCL-1 xenografts = experiment: TUNEL immunohistochemical staining for apoptosis in xenografts; type: in vivo, mice; conditions: day 21; four doses on days 0, 3, 7 and 10; MTX 40 mg/kg, PDX 60 mg/kg
Description: Immunohistochemical staining for apoptosis as measured by terminal deoxynucleotide transferase-mediated nick end-labeling (TUNEL) was performed on SKI-DLBCL-1 xenografts from mice sacrificed at day 21 following initiation of antifolate therapy. Mice received four doses of saline, MTX (40 mg/kg) or PDX (60 mg/kg) on days 0, 3, 7 and 10.

[8] = cited from earlier work
[9] = PDX 60 mg/kg ip twice weekly for two weeks

Nc1ccn([C@@H]2O[C@H](CO)[C@@H](O)[C@@H]2O)c(=O)n1 [Ara-C, cytarabine]
fraction of control [1]: 0.76 | % change in apoptosis (SKI-DLCL-1 cells): −3.08% | Fluorescence at 485ex/527em [2]: 141.1 | Difference from control [2]: 6.8 | tumor growth compared to the control [3]: modest growth delay | MTD at 2 weeks [4]: 300 mg/kg | xenograft outcome in words (SKI-DLBCL-1 xenograft): sacrificed early due to excessive tumor growth

Nc1ccn([C@@H]2O[C@H](CO)[C@@H](O)C2(F)F)c(=O)n1 [Gem, 1-(2′,2′-difluoro-β-D-arabinofuranosyl) cytosine]
fraction of control [1]: 0.72 | % change in apoptosis (SKI-DLCL-1 cells): 33.76% | Fluorescence at 485ex/527em [2]: 195.4 | Difference from control [2]: 61.1 | tumor volume as % of initial tumor volume ([3]; 60 mg/kg, regrowth by day 44 after initial response): 318% | MTD at 2 weeks [4]: 60 mg/kg

CN(Cc1cnc2nc(N)nc(N)c2n1)c1ccc(C(=O)N[C@@H](CCC(=O)O)C(=O)O)cc1 [MTX, methotrexate]
fraction of control [1]: 0.92 | % change in apoptosis (SKI-DLCL-1 cells): −12.24% | Fluorescence at 485ex/527em [2]: 131 | Difference from control [2]: −3.3 | Complete Regression (no/total) ([5]; PDX 60 mg/kg): 0/7 | complete tumor regression (% of mice) ([5]; PDX 60 mg/kg): no tumor regression | Avg change in Tumor Volume (mm^3 ± SE) [5, 9]: +300 ± 225 mm^3 | Avg Tumor Diameter (mm ± SE) ([5]; PDX 60 mg/kg): 8.7 ± 2.0 mm | Avg Tumor Diameter (mm ± SE) ([5]; PDX 60 mg/kg, listed as MDX): 8.7 mm | Complete Regression (no/total) ([6]; PDX 60 mg/kg): 0/12 | tumor regressions (% of mice) ([6]; PDX 60 mg/kg): no regressions | Avg Tumor Diameter (mm ± SE) [6, 9]: 10.9 ± 0.5 mm | Avg change in Tumor Volume (mm^3 ± SE) [6, 9]: +619 ± 108 mm^3 | Complete Regression (no/total) ([7]; PDX 60 mg/kg): 0/10 | tumor regressions / complete remissions (% of mice) ([7]; PDX 60 mg/kg): no regressions | Avg Tumor Diameter (mm ± SE) [7, 9]: 9.5 ± 0.4 mm | Avg change in Tumor Volume (mm^3 ± SE) [7, 9]: +299 ± 58 mm^3 | tumor growth compared to the control [3]: modest growth delay | xenograft outcome in words (SKI-DLBCL-1 xenograft): sacrificed early due to excessive tumor growth | apoptotic cells in tumor tissue (TUNEL) (SKI-DLBCL-1 xenografts): little or no evidence of apoptotic cells | maximum tolerated dose (MTD) ([8]; intraperitoneal, twice weekly for two weeks): 40 mg/kg | toxic deaths at the MTD ([8]; nude mice): no toxic deaths
